Measured values: PubChem BioAssay (NCI)
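Growth conditions: 96-well plates. Treatment: test compound, 48 hours, 5 concentrations. Analysis: linear interpolation between bracketing concentrations; unreached endpoints set to highest concentration. Abbreviation: GI50, concentration required for 50% inhibition of growth. TGI is the concentration that stops growth completely.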

Experiments:
Test in all cases: NCI anticancer screen, dose series, 48 h
NCI-H460 lung = tested on: NCI-H460 lung
OVCAR-5 ovarian = tested on: OVCAR-5 ovarian
SK-MEL-5 melanoma = tested on: SK-MEL-5 melanoma
KM12 colon = tested on: KM12 colon
COLO 205 colon = tested on: COLO 205 colon
HCT-15 colon = tested on: HCT-15 colon
SNB-75 CNS = tested on: SNB-75 CNS
SR leukemia = tested on: SR leukemia

Compound | GI50 (NCI-H460 lung) | TGI (NCI-H460 lung) | GI50 (OVCAR-5 ovarian) | TGI (OVCAR-5 ovarian) | GI50 (SK-MEL-5 melanoma) | TGI (SK-MEL-5 melanoma) | GI50 (KM12 colon) | TGI (KM12 colon) | GI50 (COLO 205 colon) | TGI (COLO 205 colon) | GI50 (HCT-15 colon) | TGI (HCT-15 colon) | GI50 (SNB-75 CNS) | TGI (SNB-75 CNS) | GI50 (SR leukemia) | TGI (SR leukemia)
O=C(COc1cccc(/C=C2\CSc3ccccc3C2=O)c1)c1ccc(Cl)cc1 | 2.88 µM | 8.38 µM | 1.85 µM | 4.08 µM | 1.8 µM | 3.41 µM | 1.29 µM | 2.75 µM | 2.89 µM | 7.35 µM | 1.92 µM | 5.37 µM | 5.04 µM | 22.4 µM |  | 
Nc1ncnc2c1cnn2Cc1ccc(Cl)cc1 |  | > 100 µM | 44.8 µM | > 100 µM |  | > 100 µM |  | > 100 µM |  | > 100 µM |  | > 100 µM |  | > 100 µM |  | 
C=C1C(=O)O[C@H]2[C@H]1CC/C(COC(=O)c1ccccc1)=C\CC[C@@]1(C)O[C@@H]21 | 2.22 µM | 6.16 µM | 2 µM | 5.36 µM | 1.63 µM | 3.03 µM | 2.57 µM | 8.42 µM | 1.37 µM | 3.14 µM | 0.8 µM | 2.3 µM | 5.7 µM | 18.7 µM | 0.35 µM | 86.8 µM
Cc1cc(=O)oc2cc(OS(C)(=O)=O)ccc12 |  | > 100 µM |  | > 100 µM |  | > 100 µM |  |  |  | > 100 µM |  | > 100 µM |  | > 100 µM |  | > 100 µM
COc1ccc(-c2cc(=O)c3c(OC)c(OC)c(OC)c(OC)c3o2)c(OC)c1 |  | > 100 µM |  | > 100 µM |  | 55.8 µM |  |  |  | 34.3 µM |  | 86.1 µM |  | > 100 µM |  | > 100 µM
C=CC1=C(C)C2=NC1=CC1=NC(=CC3=C(C)C4=C(O)C(C(=O)OC)C(=C5NC(=C2)C(C)C5CCC(=O)OC)C4=N3)C(CC)=C1C (stereo unspecified) |  | > 100 µM |  | > 100 µM |  | > 100 µM |  | > 100 µM |  | > 100 µM |  | > 100 µM |  | > 100 µM |  | > 100 µM
NC1CCC(N[C@@H]2C[C@H]2c2ccccc2)CC1 (stereo partly specified) | > 100 µM | > 100 µM | > 100 µM | > 100 µM | > 100 µM | > 100 µM | > 100 µM | > 100 µM | 73.4 µM | > 100 µM | 74.4 µM | > 100 µM | 8.89 µM | > 100 µM | 19.9 µM | > 100 µM
COc1cc2c(cc1OCCCCOc1ccc(-c3nc4ccccc4s3)cc1)N=C[C@@H]1CCCN1C2=O | 1.56 µM | 4.06 µM | 0.861 µM | 3.86 µM | 0.667 µM | 1.85 µM |  |  | 0.655 µM | 1.76 µM | 1.08 µM | 3.89 µM | 1.26 µM | 2.63 µM | 0.276 µM | 1.12 µM
O=C(Nc1cccc(-n2cc(-c3ccncc3)c(-c3ccc(O)c(Cl)c3)n2)c1)Nc1cccc(C(F)(F)F)c1 | 2.64 µM |  | 3.5 µM | 36.3 µM | 1.59 µM | 3.01 µM | 1.72 µM | 3.48 µM | 1.96 µM | 3.73 µM | 2.24 µM | 10.2 µM | 1.43 µM | 9.75 µM | 1.02 µM | 4.71 µM
O=C(CC1C=CCS1(=O)=O)NCc1ccccc1 (stereo unspecified) |  | > 100 µM |  | > 100 µM |  | > 100 µM |  | > 100 µM |  | > 100 µM |  | > 100 µM |  | > 100 µM |  | > 100 µM
C=C1C[C@@]2(C)C(CC[C@]3(C)C2CC=C2C4CC(C)(C)C[C@@H](OC(=O)/C(C)=C\C)[C@]4(C(=O)O)CC[C@]23C)C(C)(C)C1=O (stereo partly specified) | 3.22 µM | 11 µM | 3.17 µM | 10.3 µM | 3.35 µM | 11.2 µM | 3.84 µM | 15.9 µM | 3.59 µM | 17.6 µM | 2.23 µM | 7.88 µM |  |  | 1.55 µM | 8.92 µM
COC1=C(Br)C(=O)C2=C(C1=O)C1C3=C(C(=O)C=CC3=O)C2c2ccccc21 (stereo unspecified) | 33.3 µM | > 100 µM | 22.3 µM | 98.6 µM | 16 µM | 48.9 µM | 12.4 µM | 32.1 µM | 12.3 µM | 44.9 µM | 20 µM | 42.6 µM | 19.4 µM | 64.4 µM |  | 
N#C/C(=C\c1ccc(Br)cc1)n1nnc2ccccc21 | 1.68 µM | 3.82 µM | 1.13 µM | 3.26 µM | 0.999 µM | 2.32 µM | 0.512 µM | 2.33 µM | 0.591 µM | 3.22 µM | 0.273 µM | 3.03 µM |  |  | 0.144 µM | 14.6 µM
COc1ccccc1-c1cc(=O)c2ccc(OC)c(OC)c2o1 |  | > 100 µM |  | > 100 µM |  | > 100 µM |  |  |  | > 100 µM |  | > 100 µM |  | > 100 µM |  | > 100 µM
Cc1cc2cn3c4cccnc4[nH]c(=O)c3c2cc1C |  |  | 1.66 µM | 3.02 µM | 1.13 µM | 2.34 µM | 1.15 µM | 2.56 µM | 1.65 µM | 3.18 µM | 1.41 µM | 2.87 µM | 1.43 µM | 3.08 µM |  | 
COc1ccc(N(/C=C/C(=O)C(F)(F)F)CC(=O)c2ccc(Cl)c(Cl)c2)cc1 | 6.73 µM | 27.3 µM | 16.5 µM | 30.2 µM | 7 µM | 20.4 µM | 11.6 µM | 37.3 µM | 20.2 µM | 39.6 µM | 7.66 µM | 21.4 µM |  |  |  | 
Clc1ccc(Nc2ccnc(NCCCNc3ccnc4cc(Cl)ccc34)n2)cc1 |  |  | 1.68 µM | 3.09 µM | 1.4 µM | 2.75 µM |  |  |  |  |  |  | 1.23 µM | 2.5 µM |  | 
O=C(O)C1CCCCC1c1c2ccc(=O)cc-2oc2cc(O)ccc12 (stereo unspecified) |  | > 100 µM |  | > 100 µM |  | > 100 µM |  | 49.1 µM |  | > 100 µM |  | > 100 µM |  | 72.1 µM |  | 
O=C1CS/C(=N\S(=O)(=O)c2ccc(N3N=C4c5ccccc5CC4C3c3ccc(Cl)cc3)cc2)N1c1ccccc1 (stereo unspecified) | 19.7 µM | 48.9 µM |  |  | 32.2 µM | > 100 µM | 22 µM | 58.6 µM | 1.73 µM | 16 µM | 34.8 µM | > 100 µM |  |  | 11.4 µM | 28.1 µM
